US12291518B2, “Thyroid hormone receptor agonists and use thereof” (Eccogene Inc., priority 2020, dated 2025)
pEC50: −log10 of the molar value.

Experiments:
THR beta-LBD = molecular target: T1, THR beta-LBD (Homo sapiens, UniProt P10828); experiment: THR-β Coactivator Peptide Recruitment Assay (LanthaScreen TR-FRET); format: biochemical; details: TR-FRET coactivator recruitment, THR beta-LBD 0.5 nM; for pEC50: read-out: THRβ EC50
T1 construct: THR beta-LBD (the final concentration is 0.5 nM) was added to the 384-well assay plate; purchased Invitrogen PV4686
T1 sequence (P10828 217-461 limits assumed): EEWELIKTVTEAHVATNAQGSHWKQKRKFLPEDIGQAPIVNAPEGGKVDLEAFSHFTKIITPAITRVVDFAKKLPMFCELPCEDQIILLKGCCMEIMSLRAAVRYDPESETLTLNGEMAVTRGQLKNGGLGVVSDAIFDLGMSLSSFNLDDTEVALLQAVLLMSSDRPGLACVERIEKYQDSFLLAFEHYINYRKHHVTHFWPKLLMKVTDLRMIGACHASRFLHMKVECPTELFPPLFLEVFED
Protocol: (§1) A time-resolved FRET (TR-FRET) assay was used to test representative compounds of the application.
(§2) THR-β Coactivator Peptide Recruitment Assay were conducted by using Invitrogen's LanthaScreen™ TR-FRET Thyroid Receptor beta Assay Kit (Catalog no. PV4686). Binding of an agonist to the nuclear receptor causes a subsequent binding of a coactivator peptide, resulting in fluorescence energy transfer from the labelled nuclear receptor to the proximal coactivator peptide, which reflects the binding affinity of the agonist and the nuclear receptor. The assay was conducted by following the manufacturer's instructions. Briefly, THR beta-LBD (the final concentration is 0.5 nM) was added to the 384-well assay plate containing test compounds, followed by addition of Fluorescein-SRC2-2 coactivator peptide and terbium (Tb)-labeled anti-GST antibody. The final concentration of THR beta-LBD, Fluorescein-SRC2-2 coactivator peptide and terbium (Tb)-labeled anti-GST antibody is 0.5 nM, 0.1 nM and 2 nM, respectively. After a gentle mix and incubation at room temperature for 2 h, the signal was read on the EnVision Multilabel Plate Reader at wavelengths of 520 nm and 495 nm. TR-FRET ratio was calculated by dividing the emission signal at 520 nm and the emission signal at 495 nm, and then was plotted against a sigmoidal dose response curve (four parameters, GraphPad™ Prism 8) to determine the EC50 value.

THR alpha-LBD = molecular target: T2, THR alpha-LBD (Homo sapiens, UniProt P10827); experiment: THR-α Coactivator Peptide Recruitment Assay (LanthaScreen TR-FRET); format: biochemical; details: TR-FRET coactivator recruitment, THR alpha-LBD 0.25 nM; for pEC50: read-out: THRα EC50
T2 construct: except that THR alpha-LBD of a final concentration 0.25 nM was used; purchased Invitrogen PV4687
Protocol: as §1, §2
THR-α Coactivator Peptide Recruitment Assay were conducted by using Invitrogen's LanthaScreen™ TR-FRET Thyroid Receptor alpha Assay Kit (Catalog no. PV4687), following the same method described above except that THR alpha-LBD of a final concentration 0.25 nM was used.

T2 sequence (P10827 163-410 isoform P10827-2 limits assumed, other chains not shown): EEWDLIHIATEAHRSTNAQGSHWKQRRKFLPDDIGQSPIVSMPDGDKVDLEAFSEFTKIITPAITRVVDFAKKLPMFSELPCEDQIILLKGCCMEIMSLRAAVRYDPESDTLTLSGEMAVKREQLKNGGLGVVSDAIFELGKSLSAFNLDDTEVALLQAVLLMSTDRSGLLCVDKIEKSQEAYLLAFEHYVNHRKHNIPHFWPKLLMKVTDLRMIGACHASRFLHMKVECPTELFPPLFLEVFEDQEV

Structure (SMILES) | THRβ Emax (THR beta-LBD) | pEC50 (THR beta-LBD) | THRα Emax (THR alpha-LBD) | pEC50 (THR alpha-LBD)
O=c1[nH]c(=O)n(-c2cc(Cl)c(Oc3ccc(O)c(S(=O)(=O)N[C@@H]4CC[C@@H](O)C4)c3)c(Cl)c2)nc1C(F)F (racemic) [Compound 75, 5-(2,6-dichloro-4-(6-(difluoromethyl)-3,5-dioxo-4,5-dihydro-1,2,4-triazin-2(3H)-yl)phenoxy)-2-hydroxy-N-((1R,3R)-3-hydroxycyclopentyl)benzenesulfonamide] | C (<75) | 7.70 to 8.70 | B (40~85) | 6.00 to 6.70
O=C(c1cc(Oc2c(Cl)cc(-n3nc(Cl)c(=O)[nH]c3=O)cc2Cl)ccc1O)N1C[C@H]2CC[C@@H]1C2 (single isomer, unassigned) [Compound 7] | A (90~110) | > 8.70 | A (85~110) | 6.70 to 8.70
O=C(c1cc(Oc2c(Cl)cc(-n3nc(Cl)c(=O)[nH]c3=O)cc2Cl)ccc1O)N1C[C@@H]2CC[C@H]1C2 (single isomer, unassigned) [Compound 8] | B (75~90) | > 8.70 | B (40~85) | 6.70 to 8.70
CN1C[C@@H](NS(=O)(=O)c2cc(Oc3c(Cl)cc(-n4nc(C(F)F)c(=O)[nH]c4=O)cc3Cl)ccc2O)CC1=O (single isomer, unassigned) [Compound 34] | C (<75) | 7.00 to 7.70 | B (40~85) | 6.00 to 6.70
CN1C[C@H](NS(=O)(=O)c2cc(Oc3c(Cl)cc(-n4nc(C(F)F)c(=O)[nH]c4=O)cc3Cl)ccc2O)CC1=O (single isomer, unassigned) [Compound 35] | C (<75) | 7.00 to 7.70 | B (40~85) | 6.00 to 6.70
O=c1[nH]c(=O)n(-c2cc(Cl)c(Oc3cc(S(=O)(=O)N[C@@H]4CC[C@@H]4O)c(O)cn3)c(Cl)c2)nc1C(F)F (stereo in doubt) [Compound 170, 2-[2,6-dichloro-4-[6-(difluoromethyl)-3,5-dioxo-1,2,4-triazin-2-yl]phenoxy]-5-hydroxy-N-[(1R,2S)-2-hydroxycyclobutyl]pyridine-4-sulfonamide] | C (<75) | 7.00 to 7.70 | B (40~85) | 6.00 to 6.70
O=c1[nH]c(=O)n(-c2cc(Cl)c(Oc3cc(S(=O)(=O)N[C@@H]4CC[C@H]4O)c(O)cn3)c(Cl)c2)nc1C(F)F (stereo in doubt) [Compound 171, 2-[2,6-dichloro-4-[6-(difluoromethyl)-3,5-dioxo-1,2,4-triazin-2-yl]phenoxy]-5-hydroxy-N-[(1R,2R)-2-hydroxycyclobutyl]pyridine-4-sulfonamide] | C (<75) | 7.00 to 7.70 | C (<40) | 6.00 to 6.70
O=C(NC1CCC1)c1cc(Oc2c(Cl)cc(-n3nc(C(F)F)c(=O)[nH]c3=O)cc2Cl)ccc1O [Compound 1, N-cyclobutyl-5-[2,6-dichloro-4-[6-(difluoromethyl)-3,5-dioxo-1,2,4-triazin-2-yl]phenoxy]-2-hydroxy-benzamide] | A (90~110) | 7.70 to 8.70 | B (40~85) | 6.70 to 8.70
O=C(N[C@H]1C[C@H](O)C1)c1cc(Oc2c(Cl)cc(-n3nc(C(F)F)c(=O)[nH]c3=O)cc2Cl)ccc1O [Compound 2, 5-(2,6-dichloro-4-(6-(difluoromethyl)-3,5-dioxo-4,5-dihydro-1,2,4-triazin-2(3H)-yl)phenoxy)-2-hydroxy-N-((1r,3r)-3-hydroxycyclobutyl)benzamide] | B (75~90) | 7.70 to 8.70 | B (40~85) | 6.00 to 6.70
O=C(NC1CC(F)(F)C1)c1cc(Oc2c(Cl)cc(-n3nc(C(F)(F)F)c(=O)[nH]c3=O)cc2Cl)ccc1O [Compound 3, 5-[2,6-dichloro-4-[3,5-dioxo-6-(trifluoromethyl)-1,2,4-triazin-2-yl]phenoxy]-N-(3,3-difluorocyclobutyl)-2-hydroxy-benzamide] | A (90~110) | 7.00 to 7.70 | B (40~85) | < 6.00
